# Experiment: Human HepG2 cell viability assay in 384 well format
# Type: toxicity, cell-based
# Parameters: dose 125 nL, time 70.5 hour; cytotoxicity at 70.5 h: concentration not given beside the values
# Conditions: HepG2 cells, read-out: Inhibition
row,Compound,cytotoxicity at 70.5 h
1,c1nc2c(c(NC3COC4(CCCC4)C3)n1)CCNCC2 (configuration not stated),-5.17%
2,O=C(c1ccc(-n2cccn2)c(F)c1)N1CCCN2CCCC2C1 (configuration not stated),-8.24%
3,CCc1c(C)[nH]c(C(C)(N)CC)nc1=O (configuration not stated),-10.4%
4,CC1(C)CN(CC(F)(F)F)CCN1CC(N)=O,-3.8%
5,CN1CCC(N2CCC[C@H]2c2nc(-c3cncnc3N)no2)CC1,-0.402%
6,CCc1n[nH]c(C2CN(C(=O)c3ncoc3C(C)C)CCO2)n1 (configuration not stated),-9.85%
7,Cc1cc(O)nc(C2CN(CCC(F)(F)F)CCO2)n1 (configuration not stated),-7.38%
8,CN(C)S(=O)(=O)N1CCC(c2cccc(Cc3ccccc3Cl)n2)CC1,18.2%
9,Cc1occc1C(=O)N1CC[C@@H]2[C@@H](CO[C@H]2CNS(C)(=O)=O)C1,-1.5%
10,O=C(c1n[nH]cc1Cl)N1CCOC(Cc2cccc(C(F)(F)F)c2)C1 (configuration not stated),-4.63%
11,COCC(=O)N1CCCC1c1ccc(C(=O)NCc2ccccc2Cl)s1 (configuration not stated),-11.5%
12,Cc1ncncc1C(=O)N1CCCC(c2[nH]ncc2S(C)(=O)=O)C1 (configuration not stated),-6.13%
13,COCC(O)CN(C)C(=O)c1cccc(-c2csc(C)n2)c1 (configuration not stated),1.21%
14,Cn1cccc1C(=O)N1CC[C@H]2[C@@H]1CCC(=O)N2CC1CC1,3.01%
15,CSCCC(C)NC(=O)c1cccc(-c2n[nH]c(C)n2)c1 (configuration not stated),-6.77%
16,CC(Nc1cccc2c1OCCO2)C(=O)NC(N)=O (configuration not stated),-2.31%
17,O=S(=O)(NCc1ccc(S(=O)(=O)N2CCCC2)s1)c1cc(Cl)ccc1Cl,-14.9%
18,O=C(N1CCCC(n2cncn2)C1)C1(c2cccc(F)c2)CC1 (configuration not stated),-7.31%
19,COc1cccc(Oc2nc(C)c(C(=O)O)s2)c1OC,-13.3%
20,Cn1c(C2CC2)nc2c1CCN(CCc1ccccn1)C2,-5.41%
21,CCC(CO)NC(=O)Cc1ccc(NC(=O)CC2=CCCCC2)cc1 (configuration not stated),-3.34%

row,Compound,cytotoxicity at 70.5 h
1,COc1ccc(C(=O)N2CCC(c3nccn3C(C)C)CC2)cc1OC,22.5%
2,CC(C)CNC(=O)c1nc2c(s1)CCN(C(=O)c1cccnc1)CC2,-4.69%
3,Cc1cc(C)nc(Nc2ccc(C3CCCCN3)cn2)n1 (configuration not stated),18.8%
4,CC(=O)N1CCC(c2nc(Cc3ccccc3)no2)C1 (configuration not stated),-3.88%
5,Cc1nn(C)c(N(C)C)c1CNCc1ccccc1Cn1cccn1,-2.08%
6,Cc1ccc(CNC(c2ccccc2)c2nccn2C)cc1C (configuration not stated),-7.63%
7,CC(C)c1nnc(CN2CCCC2Cn2cncn2)o1 (configuration not stated),-11.1%
8,Cc1noc(C2CCN(C(=O)CCCNc3ncccn3)CC2)n1,1.13%
9,Cc1cc(F)ccc1S(=O)(=O)N1CCN(C)Cc2ccccc21,-6.39%
10,CSCC(=O)N(C)Cc1ccccc1,-6.59%
11,CC1CCN(c2ccnc3ccc(Br)cc23)CC1,2%
12,Cc1ncc2c(n1)CN(Cc1nc(C)c(C)o1)CC2,-100%
13,CCOCC(=O)NCCc1ccc(I)s1,18.6%
14,CC1CN(Cc2ccccc2Cn2cccn2)CCN1C (configuration not stated),-0.364%
15,Cc1cc(N2CCN(C(=O)[C@@H]3C[C@@H]4C=C[C@H]3C4)CC2)nc2ccccc12,-4.89%
16,CN(Cc1cnccn1)C(=O)c1ccnc(OC2CCC2)c1,-9.6%
17,Cc1cnn(CC2CCCN2C(=O)CCc2nc3ccccc3[nH]2)c1 (configuration not stated),-15.5%
18,CC1COCCN1Cc1noc(C(C)(C)C)n1 (configuration not stated),19.8%
19,CCn1c(CN(C)C(=O)c2ccc(OC)nc2)nc2ccccc21,-11.7%
20,CC(C)C(C(=O)N1CCC(N(C)c2cccnn2)CC1)n1cncn1 (configuration not stated),-12.6%
21,Cn1ccc(C(=O)N2CCC(Cc3cccc4ncccc34)C2)n1 (configuration not stated),-1.84%

row,Compound,cytotoxicity at 70.5 h
1,COc1ccc(CNCc2c(C)nn(C)c2N2CCOCC2)cc1,-3.63%
2,Cc1nn(C)c(Cl)c1CNCc1cccnc1N1CCOCC1,0.768%
3,CC(=O)N1CCCN(C(=O)NCCCNS(C)(=O)=O)CC1,9.32%
4,O=C(c1ccc(F)c(F)c1)N1C[C@H]2CNC[C@H]2C1,-11.5%
5,Cc1cc(CN(C)C(=O)NC2CCCN(c3ncccn3)C2)no1 (configuration not stated),-3.61%
6,CCOc1ccccc1C(CC(=O)O)NC(C)=O (configuration not stated),-4.62%
7,Cc1nn(C(C)(C)C)c(=O)n1CC(=O)NCC(F)(F)F,3.06%
8,Cc1nn(CCNS(=O)(=O)c2ccccc2)c(C)c1Cl,-7.1%
9,COCC1c2c(cnn2CC2CCOCC2)CCN1Cc1ccoc1 (configuration not stated),3.09%
10,COCCn1c(=O)n(Cc2ccc(Cl)s2)c2cc(C(=O)O)ccc21,-10.7%
11,Cn1ccnc1CN1CCN(c2ccc(C#N)cn2)CC1,-13.3%
12,O=C(O)c1c(Cl)ncn1-c1cccc2ccccc12,-4.51%
13,COCC(C)NC(=O)c1nnn(-c2ccc(OC)cc2)n1 (configuration not stated),-9.57%
14,CNS(=O)(=O)CC(=O)NC(C)Cc1ccc(-c2ccccc2)cc1 (configuration not stated),1.33%
15,COc1ccc2cc(C(=O)N3CCCC3Cn3cc(C)cn3)[nH]c2c1 (configuration not stated),2.37%
16,COCCN1CCN(CC(=O)N(C)Cc2ccccc2)CC1C (configuration not stated),53.1%
17,CCn1ncc(-c2cc(C(F)F)n3nc(CCC(=O)O)nc3n2)c1C,-1.79%
18,CN(C)c1ncnc2c1CCN(S(=O)(=O)c1cccc(Cl)c1Cl)C2,-4.66%
19,COc1cccc(CCN2C[C@H]3CCNCC[C@H]3S2(=O)=O)c1,23.9%
20,Cc1cc(NC(=O)CN2CCCC2c2noc(C)n2)n(C(C)(C)C)n1 (configuration not stated),-7.96%
21,O=C(Cc1ccccc1F)N1C[C@@H]2COC[C@]2(COc2cccnc2)C1,-11.5%

row,Compound,cytotoxicity at 70.5 h
1,O=C(O)c1cc(/C=C/c2cccc3ccccc23)ncn1,-7.2%
2,Cc1nc(C2CCCN(C(=O)c3sc(C)nc3C)C2)no1 (configuration not stated),37.2%
3,O=C(NCc1cccnc1)C1=NOC2(CCN(C(=O)N3CCCC3)C2)C1 (configuration not stated),-9.94%
4,OC(CNCc1nnc2ccccn12)c1ccc2c(c1)OCO2 (configuration not stated),-8%
5,COc1ccc(C(C)NCc2cnnn2C)cc1F (configuration not stated),2.17%
6,Cc1oc(C(C)C)cc1C(=O)N1C[C@H]2CC[C@@H]1CN(c1ncccn1)C2,-13.7%
7,CN1CCc2onc(CNc3ncccn3)c2C1,-25.4%
8,CN(C)Cc1cccc(-c2cccnc2C(=O)NCc2ccccn2)c1,-3.29%
9,CCc1nccn1C1CCCN(C(=O)c2ccnc(C)n2)C1 (configuration not stated),-7.48%
10,Cc1cc(CN2CCC(c3nccn3C(C)C)CC2)ccc1F,15.8%
11,N#Cc1c(C2CCOC2)cc(-c2ccc(N3CCCCC3)cc2)nc1N (configuration not stated),-7.42%
12,Cc1ccc(NC(=O)Cn2ncc(SCC(N)=O)c(Cl)c2=O)c(F)c1,-17.2%
13,CC(C)CS(=O)(=O)N1CCC2(CN(c3cccc(F)c3)C(=O)CN2C)C1 (configuration not stated),19.6%
14,CCN(C(=O)Cc1ccc(NCc2nccn2C)cc1)c1ccccc1,-6.33%
15,Cc1ncsc1CNC(=O)N(CCCO)C1CCc2ccccc21 (configuration not stated),-7.98%
16,COCCN1CC2(CCCN(C(=O)CCCc3cccs3)C2)CCC1=O (configuration not stated),9.49%
17,CC(C)C[C@@H](N)C(=O)N(C)Cc1csc(C(C)C)n1,2.05%
18,Cc1noc([C@@]23CCO[C@@H]2CCN(C(=O)c2sccc2C)C3)n1,-1.6%
19,COCCN1CCOCC12CCN(c1ccc(C#N)cc1)CC2,-0.11%
